Our source for the viability values is PMC12040169 (PLOS Biology, 2025).

By viability is commonly meant a read-out of living cells in per cent, often relative to untreated cells.

A short description of this data set: in vitro. The conditions noted are these: human, hela cells, % viability.
Turning to `CCCc1oc(C(=O)O)cc1CN1CCOCC1` [CBK267984C], the viability at 28.5 h, 10 µM turned out to be 106%.
With `COc1ccc(S(=O)(=O)N2CCC(C(=O)Nc3cccc(F)c3)CC2)cc1C` [CBK267987] the figure was 92%; with `COc1ccccc1Oc1nnnn1-c1ccc(C(N)=O)cc1` [CBK267988], 96%; with `CC(=O)N1CCN(Cc2nc3cc(NC(=O)Cn4nc(C)c5ccccc5c4=O)ccc3n2C)CC1` [CBK267989], 87.8%.
`COc1ccc(C)cc1S(=O)(=O)N(CC(=O)Nc1ccccc1C)c1ccc(Cl)cc1` [CBK267995]: the viability at 28.5 h, 10 µM was 90.1%.
`COc1cc(OC)cc(C(=O)OCc2ccc(F)cc2)c1` [CBK267996]: the viability at 28.5 h, 10 µM stood at 95.6%.
With `O=C(CC1C(=O)NCCN1C(=S)Nc1ccccc1)Nc1ccc2c(c1)OCCO2` (centres unmarked) [CBK267999] the figure was 95.9%; with `CCC(NC(=O)Nc1ccccc1C(=O)O)(C(F)(F)F)C(F)(F)F` [CBK268000], 93.2%.
The result for `COc1ccc(C(=O)Nc2ccccc2N2CCN(C)CC2)cc1Cl` [CBK268001] reads 90.5%; that for `CC(Oc1ccc(-c2ccccc2)cc1)C(=O)Nc1ccc2c(c1)OCCO2` (centres unmarked) [CBK268002], 92.3%; that for `Cc1cc(SCC(=O)Nc2cccc3ccccc23)nc2c(C)cccc12` [CBK268005], 92.2%.
Regarding `O=C(CSc1nnc(-c2ccco2)o1)Nc1cccc2nsnc12` [CBK268006], the viability at 28.5 h, 10 µM was 93.2%.
As to `O=C(O)C1CCCCC1C(=O)Nc1ccc(S(=O)(=O)N2CCOCC2)cc1` (centres unmarked) [CBK268010], the viability at 28.5 h, 10 µM was found to be 104%.
For `COCCCn1c(CCC(=O)O)ccc1-c1ccc(Br)cc1` [CBK268015], the viability at 28.5 h, 10 µM was 97.6%.
With `Cc1cc(C)nc(Nc2n[nH]c(COc3ccccc3)n2)n1` [CBK268016] the figure was 93.2%; with `O=C(Nc1ccc(S(=O)(=O)N2CCCCCC2)cc1)c1ccc(NS(=O)(=O)c2ccccc2)cc1` [CBK268018], 90.4%.
For the molecule `CC(NC(=O)Nc1ccccc1O)(C(F)(F)F)C(F)(F)F` [CBK268019], the viability at 28.5 h, 10 µM came out at 101%.
Turning to `O=C(O)c1ccccc1-c1nc(-c2ccccc2F)no1` [CBK268022], the viability at 28.5 h, 10 µM turned out to be 100%.
Take `CC(Oc1cccc(Br)c1)C(=O)NCCC(=O)O` (centres unmarked) [CBK268024]: the viability at 28.5 h, 10 µM was determined as 90.9%.
With `O=C(Cn1nnc(-c2ccc3c(c2)OCO3)n1)Nc1ccccc1C(=O)O` [CBK268025] the figure was 101%; with `O=C(O)c1cccc(NC(=O)c2cc(-n3cnnc3)ccc2Cl)c1` [CBK268026], 83%.
Turning to `CCn1cc(C(=O)O)c(=O)c2cc(F)c(N3CCN(C(=S)Nc4ccc5c(c4)OCO5)CC3)cc21` [CBK268027], the viability at 28.5 h, 10 µM turned out to be 83.1%.
Take `CC(CNC(=O)C1CCCCC1C(=O)O)c1ccccc1` (centres unmarked) [CBK268028]: the viability at 28.5 h, 10 µM came to 97.1%.
`O=C(O)c1cccc(CSc2nnc(Cc3ccccc3)[nH]2)c1` [CBK268029]: the viability at 28.5 h, 10 µM is 94.1%.
On to `CCNC(=O)N1C(CC(=O)OCC)C(=O)NC2CCCCC21` (centres unmarked) [CBK268030], for which the viability at 28.5 h, 10 µM turned out to be 116%.
With `CC(=O)Nc1ccc(C(=O)CSc2nc(-c3ccccc3)cs2)cc1` [CBK268038] the figure was 101%; with `Cc1nnc(Nc2ccc3c(c2)nc2n3CCN(C3CCCCC3)C2)c2ccccc12` [CBK268042], 90.9%; with `Cc1nnc(SCC(=O)NCCc2ccccc2)nc1O` [CBK268045], 92%.
Regarding `Cc1cc(NC(=O)C(=O)NCCCN2CCOCC2)ccc1Br` [CBK268046], the viability at 28.5 h, 10 µM was determined as 94.7%.
The result for `CCOc1cc(C)c(Cl)cc1S(=O)(=O)NCc1ccccn1` [CBK268047] reads 108%; that for `Cc1ccc(Cl)cc1N=C(N)N=C(N)N` [CBK268049], 98.8%.
Turning to `Cc1cc(=O)oc2cc(OC(C)C(=O)Nc3sc4c(c3C(N)=O)CCCC4)ccc12` (centres unmarked) [CBK268050], the viability at 28.5 h, 10 µM was 94.6%.
